In brackets after ≈: the same amount, converted by molar mass. Several values for one entry are separate records, joined by “and”; a condition that tells them apart may be missing. Equal entries are not always repeated. Where no end group is shown, it is not given here.
Columns and labels:
MRSA isolate 1096 [1] = test: microbe, parasite or virus in culture; format: cell-based; conditions: Staphylococcus aureus, 24 h
Description: (§1) The assay was conducted in accordance with the guideline of the Clinical and Laboratory Standard Institute (CLSI). […] The cell suspension was prepared in a 20-fold dilution using Cation-Adjusted Mueller-Hinton broth (CAHMB) as a diluent. A total of 10 µL of the diluted bacterial preparation and 100 µL of pure substances (0.25–64 µg/mL) were loaded into the 96-well plates. The plates were incubated at 37 °C for 24 h. Control wells were performed for broth (CAMHB) and inoculum. Vancomycin was tested as a control drug. The experiment was performed in triplicate for each tested strain.

MRSA isolate 142 [2] = test: microbe, parasite or virus in culture; format: cell-based; conditions: Staphylococcus aureus, 24 h
Description: as §1

MRSA isolate 2468 [3] = test: microbe, parasite or virus in culture; format: cell-based; conditions: Staphylococcus aureus, 24 h
Description: as §1

S. aureus TISTR 517 [4] = test: microbe, parasite or virus in culture; format: cell-based; conditions: Staphylococcus aureus, TISTR517, 24 h
Description: as §1

MRSA isolate 1096 [5] = test: microbe, parasite or virus in culture; format: cell-based, Staphylococcus aureus
Description: (§2) Wells of 9 mm were punched on the solid media surface by a sterile tip, and 100 µL of purified substance was loaded before incubating the plates at 37 °C for 24 h. […] The result was collected from three independent experiments in which the diameter of the zone of inhibition was measured by a vernier caliper and reported as mean ± SD ([Lei et al., 2020]). The significant difference was determined by Student’s t-test at a p-value of less than 0.05.

MRSA isolate 142 [6] = test: microbe, parasite or virus in culture; format: cell-based, Staphylococcus aureus
Description: as §2

MRSA isolate 2468 [7] = test: microbe, parasite or virus in culture; format: cell-based, Staphylococcus aureus
Description: as §2

S. aureus TISTR 517 [8] = test: microbe, parasite or virus in culture; format: cell-based, Staphylococcus aureus
Description: as §2

S. aureus TISTR 517 [9] = test: Inhibition of biofilm formation (crystal violet); format: cell-based; conditions: Staphylococcus aureus, TISTR517, 48 h, read-out: IC50 of biofilm formation
Description: (§3) The cells were standardized using the same medium to achieve 1 × 10^8 CFU/mL. The cell suspension was mixed with peptide at various concentrations (0.5–256 µg/mL) in a 96-well plate. The plates were then incubated at 37 °C for 48 h. Then, the planktonic bacteria cells were removed from the plates by washing them with PBS. Thereafter, 100 µL of methanol was added to the plate to fix the biofilm-associated cells. The plates were dried and stained with 0.1% crystal violet for 15 min before rinsing twice with PBS. A total of 100 μL of […] was finally added to resolubilize the stained crystal violet. The plates were incubated at 37 °C for 30 min, and the supernatants were transferred to a new 96-well plate. The absorbance at 570 nm was measured by a microplate reader (Thermo Fisher Scientific Inc., Waltham, MA, USA) to determine the biofilm formation. […] One-way ANOVA was used to analyze the significant differences among treated samples compared to the untreated controls at various p-values.

MRSA isolate 2468 [10] = test: Inhibition of biofilm formation (crystal violet); format: cell-based, Staphylococcus aureus
Description: as §3

MRSA isolate 2468 [11] = test: Biofilm eradication assay; format: cell-based, Staphylococcus aureus; conditions: vs untreated, p-value < 0.05
Description: (§4) The bacteria were standardized to achieve 1 × 10^8 CFU/mL, and 100 µL of cell suspension was transferred to a 96-well microplate. The plates were incubated at 37 °C for 48 h for biofilm formation. The free bacteria cells were removed from the plates by washing them with PBS. Peptide solutions at the concentrations (0.5–256 µg/mL) were added to the microplate and incubated at 37 °C for 24 h. Subsequently, PBS was used to rewash the plate, and 100 µL of PBS was loaded into each well. The plate was sonicated for 30 min at room temperature, and the samples were taken and made a ten-fold serial dilution. A total of 10 µL of the diluted samples was plated on MH agar for colony count. Vancomycin and untreated samples were used as the positive and negative controls. Only SCD media without bacteria was used as the blank ([Yuan et al., 2019]). The significant difference was evaluated by one-way ANOVA (p-value < 0.05) compared to untreated controls.

[12] = system: S. aureus TISTR 517 and MRSA isolate 142, 1096, and 2468; test: microbe, parasite or virus in culture; format: cell-based, Staphylococcus aureus
Description: as §1

[13] = system: S. aureus TISTR 517 and MRSA isolate 2468; test: Biofilm eradication assay, statements for both tested bacteria; format: cell-based, Staphylococcus aureus
Description: as §4

[14] = system: S. aureus and MRSA biofilms; conditions: statically grown biofilms of S. aureus and MRSA; ref Zapotoczna et al., 2017; cited from earlier work
Source text: Biofilm is an important virulence mechanism in many bacterial pathogens. The cells irreversibly adhere to the biotic and abiotic surfaces and are surrounded by an extracellular matrix in response to stress conditions ([Flemming & Wuertz, 2019]). […] S. aureus and MRSA develop a biofilm to decrease or prevent the diffusion of antimicrobial drugs into the cells, resulting in more drug r ...

[15] = ref Baczek, Walijewski & Kaliszan, 2008, cited from earlier work
human erythrocytes = format: cell-based
Description: The Ethics Committee in Human Research at Walailak University has approved this study (WUEC-22-242-01; 15 August 2022). The written consent was obtained from a subject involved in the research. Whole blood (5 mL) was collected from a human volunteer and centrifuged at 700× g for 8 min. The pellets were washed 3 times with PBS before diluting to obtain 0.5% erythrocyte suspension. A total of 50 µL of erythrocytes was added to a 96-well plate, and the purified peptide in PBS (50 μL) was mixed to achieve the final peptide concentration of 1, 2, 4, 8, 16, 32, 64, 128, 256, and 512 µg/mL. The mixtures were then incubated at 37 °C for 1 h. They were further centrifuged at 1,000× g for 10 min, and the supernatant was loaded into a microplate before measuring the absorbance at 540 nm. The positive and negative controls were 1% Triton X-100 and untreated samples, respectively, while PBS was used as a blank control. This assay was carried out in three independent experiments. The percent hemolysis was calculated by the following equation:
%Hemolysis=[Asam−Ablank]/[Apos−Ablank]×100 where Asam is the sample absorbance, Apos and Ablank are the absorbance of positive and blank controls, respectively ([Oddo & Hansen, 2017]).

[16] = Staphylococcus aureus, read-out: Inhibition zone
[17] = Vancomycin (30 μg), mean ± SD, n = 3

CN[C@H](CC(C)C)C(=O)N[C@H]1C(=O)N[C@@H](CC(N)=O)C(=O)N[C@H]2C(=O)N[C@H]3C(=O)N[C@H](C(=O)N[C@H](C(=O)O)c4cc(O)cc(O)c4-c4cc3ccc4O)[C@H](O)c3ccc(c(Cl)c3)Oc3cc2cc(c3O[C@@H]2O[C@H](CO)[C@@H](O)[C@H](O)[C@H]2O[C@H]2C[C@](C)(N)[C@H](O)[C@H](C)O2)Oc2ccc(cc2Cl)[C@H]1O [Vancomycin]
MBC (MRSA isolate 1096 [1]): 2 µg/mL (≈ 1.38 µM) | MIC (MRSA isolate 1096 [1]): 2 µg/mL (≈ 1.38 µM) | MBC (MRSA isolate 142 [2]): 2 µg/mL (≈ 1.38 µM) | MIC (MRSA isolate 142 [2]): 2 µg/mL (≈ 1.38 µM) | MBC (MRSA isolate 2468 [3]): 2 µg/mL (≈ 1.38 µM) | MIC (MRSA isolate 2468 [3]): 2 µg/mL (≈ 1.38 µM) | MBC (S. aureus TISTR 517 [4]): 2 µg/mL (≈ 1.38 µM) | MIC (S. aureus TISTR 517 [4]): 2 µg/mL (≈ 1.38 µM) | zone of inhibition at 30 µg/disc (MRSA isolate 1096 [5]; [16]): 23.1 ± 0.36 mm | Inhibition zone (MRSA isolate 1096 [5]; [17]): 23.10 mm | zone of inhibition at 30 µg/disc (MRSA isolate 142 [6]; [16]): 23.5 ± 0.59 mm | Inhibition zone (MRSA isolate 142 [6]; [17]): 23.47 mm | zone of inhibition at 30 µg/disc (MRSA isolate 2468 [7]; [16]): 23.9 ± 0.1 mm | Inhibition zone (MRSA isolate 2468 [7]; [17]): 23.90 mm | zone of inhibition at 30 µg/disc (S. aureus TISTR 517 [8]; Staphylococcus aureus, TISTR517, read-out: Inhibition zone): 20.7 ± 0.23 mm | Inhibition zone (S. aureus TISTR 517 [8]; [17]): 20.73 mm | IC50 (S. aureus TISTR 517 [9]): 4.84 µg/mL (≈ 3.34 µM) | Biofilm formation (% of untreated) after treatment (MRSA isolate 2468 [10]; 4 μg/mL or 2× MIC, 37 °C 48 h, crystal violet, A570, mean ± SD of three experiments): 68.25 ± 4.21% | IC50 (MRSA isolate 2468 [10]; Staphylococcus aureus, 48 h, read-out: IC50 of biofilm formation): 5.91 µg/mL (≈ 4.08 µM) | Concentration that significantly reduced persistent cells in biofilm (MRSA isolate 2468 [11]): 64 µg/mL | MBC ([12]; Staphylococcus aureus): 2 µg/mL (≈ 1.38 µM) | MIC ([12]; Staphylococcus aureus): 2 µg/mL and 1.38 µM | MBC ([12]; against all tested bacteria): 2 µg/mL (≈ 1.38 µM) | MIC ([12]; against all tested bacteria): 2 µg/mL (≈ 1.38 µM) | Concentration to destroy mature biofilms as multiple of MIC ([13]; 128 μg/mL relative to MIC): 64 × MIC | Concentration that completely eradicated biofilm (killed persistent cells) ([13]; 48 h preformed biofilms, 24 h treatment, both bacteria): 128 µg/mL | Concentration for half-maximal inhibition of biofilms [14]: 16.0 to 68.2 µg/mL

DAEFGHDSG-NH2 [literature model peptide for RPC retention]
RPC retention time ([15]; isocratic elution by 0.1% TFA and ACN): 3.75 min | pI [15]: 4.02

MFLVVKVLKYVV [BrSPR19-P2]
Therapeutic index (TI) of hemolysis / hemolysis index threshold (human erythrocytes): 32
